The record followed here is the RepoRT retention time repository.

Molecules are shown by their SMILES. Where a name gives a salt, the structure may show the parent alone.

This data set is described as follows: HILIC, Merck SeQuant ZIC-HILIC, 25 °C, 0.25 mL/min; A: water + 16 mM ammonium formate; B: acetonitrile + 0.1% formic acid, pH 3; gradient (min/%B) 0/97 2/97 10/70 15/10 17/10 18/97 25/97. Particulars: stereoisomer not certain.
Consider `OCC1OC(O)CC1O` (stereo not drawn), for which the LC retention time amounted to 13 min. As for `CC(C)C(O)C(=O)O` (stereo not drawn), the LC retention time came to 1.94 min. Turning to `CC12CCC(O)CC1CCC1C2C(O)CC2(C)C1CCC2(O)C(=O)CO` (stereo not drawn), the LC retention time stood at 1.91 min. `O=C(O)CCCCC1CCSS1` (racemic): the LC retention time worked out at 1.66 min. As to `CC(N)(Cc1cnc[nH]1)C(=O)O` (racemic) [Alpha-methyl-DL-histidine dihydrochloride], the LC retention time is 15.5 min.

For `CC(=O)NC(C(=O)O)C(C)C` (racemic) [N-acetyl-DL-valine], the LC retention time was determined as 2.08 min. Regarding `O=C(O)CC(Cc1ccccc1)C(=O)O` (racemic) [dl-benzylsuccinic acid], the LC retention time was determined as 2.15 min. As for `Oc1cc(O)c2c(c1)OC(c1ccc(O)c(O)c1)C(O)C2` (single isomer, unassigned; (+)) [(+)-Catechin hydrate], the LC retention time stood at 9.95 min. For the molecule `O=C(OC1Cc2c(O)cc(O)cc2OC1c1cc(O)c(O)c(O)c1)c1cc(O)c(O)c(O)c1` (single isomer, unassigned; (-)) [(-)-Epigallocatechin gallate], the LC retention time was found to be 12.4 min.

On to `CN1C2CC(OC(=O)C(CO)c3ccccc3)CC1C1OC12` (single isomer, unassigned; (-)) [(-)-Scopolamine hydrochloride], for which the LC retention time came out at 9.99 min. Take `CCCCCCCCC=CCCCCCCCC(=O)OCC(CO)OC(=O)CCCCCCCC=CCCCCCCCC` (stereo not drawn) [1-2-dioleoyl-sn-glycerol]: the LC retention time worked out at 1.49 min.

On to `NCCCN` [1-3-DIAMINOPROPANE], for which the LC retention time amounted to 17.6 min. As for `Cn1c(=O)c2[nH]c(=O)[nH]c2n(C)c1=O` [1-3-Dimethyluric acid], the LC retention time came to 2.19 min. On to `OCC1OCC(O)C(O)C1O` [1-5-Anhydro-D-sorbitol], for which the LC retention time is 10.1 min. As to `NC1(C(=O)O)CC1` [1-AMINOCYCLOPROPANECARBOXYLATE], the LC retention time came out at 13.5 min. For the molecule `NC1(C(=O)O)CCCCC1` [1-Aminocyclohexanecarboxylic acid], the LC retention time was 11.7 min. In the case of `O=C(O)c1ccc2ccccc2c1[O-]` [1-HYDROXY-2-NAPHTHOATE], the LC retention time came out at 1.77 min. Take `Cn1cnc(C[C@H](N)C(=O)O)c1` [1-METHYL-L-HISTIDINE]: the LC retention time worked out at 15.8 min.

With `Cn1cnc2c(ncn2C2OC(CO)C(O)C2O)c1=N` (stereo not drawn) [1-METHYLADENOSINE], the LC retention time is 12.8 min. Take `C[n+]1cccc(C(N)=O)c1` [1-METHYLNICOTINAMIDE]: the LC retention time amounted to 12.8 min. Turning to `Cn1c(=O)[nH]c2[nH]c(=O)[nH]c2c1=O` [1-Methyluric acid], the LC retention time amounted to 9.44 min. Take `Cn1c(=O)[nH]c2nc[nH]c2c1=O` [1-Methylxanthine]: the LC retention time came to 2.14 min. Regarding `CC(=O)c1ccc(O)cc1O` [2'-4'-DIHYDROXYACETOPHENONE], the LC retention time stood at 1.72 min. For `Nc1ncnc2c1ncn2C1CC(O)C(COP(=O)(O)OP(=O)(O)O)O1` (stereo not drawn) [2'-DEOXYADENOSINE 5'-DIPHOSPHATE], the LC retention time amounted to 14.6 min. Next, `COC1C(O)C(CO)OC1n1cnc2c(=O)[nH]cnc21` (stereo not drawn) [2'-O-Methylinosine]: 8.49 min; `CC(C)(CCC(=O)O)C(=O)O` [2-2-Dimethylglutaric acid]: 2.1 min; `CC(C)(CC(=O)O)C(=O)O` [2-2-Dimethylsuccinic acid]: 2.18 min. Take `NCC(N)C(=O)O` (stereo not drawn) [2-3-DIAMINOPROPIONATE]: the LC retention time came to 16.1 min. For `O=C(O)c1cccc(O)c1O` [2-3-DIHYDROXYBENZOATE], the LC retention time is 2.14 min. With `O=C(O)C(COP(=O)(O)O)OP(=O)(O)O` [2-3-DIPHOSPHO-D-GLYCERIC ACID], the LC retention time was 15.7 min. Consider `O=C(O)c1ccc(O)cc1O` [2-4-Dihydroxybenzoic acid], for which the LC retention time turned out to be 2.18 min. On to `O=C(O)c1cc(O)ccc1O` [2-5-DIHYDROXYBENZOATE], for which the LC retention time was 2.14 min. Next, `Cc1cnc(C)cn1` [2-5-DIMETHYLPYRAZINE]: 2.19 min. With `O=C(O)c1c(O)cccc1O` [2-6-Dihydroxybenzoic acid] the figure was 2.07 min. Regarding `O=c1ccc2cc(O)ccc2[nH]1` [2-6-quinolinediol], the LC retention time is 2.16 min. For `CC(=O)N[C@@H]1[C@@H](O)[C@H](O)[C@@H](CO)O[C@H]1N` [2-ACETAMIDO-2-DEOXY-BETA-D-GLUCOSYLAMINE], the LC retention time was 14.5 min. With `CC(C)(N)C(=O)O` [2-AMINOISOBUTYRATE], the LC retention time came out at 13 min. For `Nc1ccccc1O` [2-AMINOPHENOL], the LC retention time amounted to 2.11 min. Take `Nc1ncccc1C(=O)O` [2-Aminopyridine-3-carboxylic acid]: the LC retention time stood at 8.8 min. In the case of `O=CC[C@@H](O)[C@H](O)[C@H](O)CO` [2-DEOXY-D-GLUCOSE], the LC retention time amounted to 10.2 min.

For the molecule `CSCCC(O)C(=O)O` (stereo not drawn) [2-HYDROXY-4-(METHYLTHIO)BUTANOATE], the LC retention time is 1.99 min. For `CCC(O)C(=O)[O-]` (stereo not drawn) [2-HYDROXYBUTYRATE], the LC retention time turned out to be 2.1 min.

On to `O=c1cccc[nH]1` [2-HYDROXYPYRIDINE], for which the LC retention time came out at 2.15 min.

In the case of `OCc1ccccc1O` [2-Hydroxybenzyl alcohol ( Salicyl alcohol- Saligenin)], the LC retention time turned out to be 1.95 min. Consider `CC(C)CC(O)C(=O)O` (stereo not drawn) [2-Hydroxyisocaproic acid], for which the LC retention time was 1.91 min. With `Cc1ccccc1C(=O)NCC(=O)O` [2-Methylhippuric acid (ortho-Methylhippuric acid)], the LC retention time stood at 1.97 min.

`NC(C(=O)O)c1ccccc1` (stereo not drawn) [2-Phenylglycine]: the LC retention time came to 11.8 min.

For the molecule `O=C(O)c1ccc2ccccc2n1` [2-QUINOLINECARBOXYLATE], the LC retention time is 2.13 min. For the molecule `CCCCC(O)C(=O)O` (stereo not drawn) [2-hydroxycaproic acid], the LC retention time came to 1.87 min. Turning to `O=C(O)C(=O)CCc1ccccc1` [2-oxo-4-phenyl-butyric acid], the LC retention time came to 2.06 min. Regarding `CC(C)(CC(=O)O)CC(=O)O` [3-3-Dimethylglutaric acid], the LC retention time amounted to 2.11 min. For the molecule `O=C(O)C(O)c1ccc(O)c(O)c1` (stereo not drawn) [3-4 DIHYDROXYMANDELATE], the LC retention time came to 10.3 min. With `NC(Cc1ccc(O)c(O)c1)C(=O)O` [3-4-DIHYDROXY-L-PHENYLALANINE] the figure was 13.4 min; with `O=C(O)c1ccc(O)c(O)c1` [3-4-DIHYDROXYBENZOATE], 2.14 min; with `O=C(O)Cc1ccc(O)c(O)c1` [3-4-DIHYDROXYPHENYLACETATE], 5.6 min. `OCC(O)c1ccc(O)c(O)c1` (stereo not drawn) [3-4-DIHYDROXYPHENYLGLYCOL]: the LC retention time was found to be 8.79 min. Next, `O=S(=O)(O)c1ccc(O)c(O)c1` [3-4-dihydroxybenzenesulfonic acid]: 12.8 min; `NC(Cc1cc(I)c(Oc2ccc(O)cc2)c(I)c1)C(=O)O` [3-5-DIIODO-L-THYRONINE]: 9.3 min. For `NC(Cc1cc(I)c(O)c(I)c1)C(=O)O` [3-5-DIIODO-L-TYROSINE], the LC retention time came out at 10.5 min. With `O=C(O)c1cc(O)cc(O)c1` [3-5-Dihydroxybenzoic acid], the LC retention time was 8.46 min.

Take `Cn1c(=O)[nH]c(=O)c2c1[nH]c(=O)n2C` [3-7-Dimethyluric acid]: the LC retention time is 2.24 min. Take `Nc1cc([O-])cc(C(=O)O)c1` [3-AMINO-5-HYDROXYBENZOATE]: the LC retention time was 2.16 min. Regarding `Nc1c(O)cccc1C(=O)O` [3-HYDROXYANTHRANILATE], the LC retention time worked out at 2.15 min. Consider `O=Cc1cccc(O)c1` [3-HYDROXYBENZALDEHYDE], for which the LC retention time amounted to 1.75 min. In the case of `O=C(O)c1cccc(O)c1` [3-HYDROXYBENZOATE], the LC retention time was determined as 2.15 min. Consider `CC(O)(CC(=O)O)CC(=O)O` [3-HYDROXYMETHYLGLUTARATE], for which the LC retention time worked out at 4.96 min. Next, `O=C(O)Cc1cccc(O)c1` [3-HYDROXYPHENYLACETATE]: 2.15 min; `COc1cc(C(O)C(=O)O)ccc1O` (stereo not drawn) [3-METHOXY-4-HYDROXYMANDELATE]: 4.88 min. Next, `COc1cc(CCN)ccc1O` [3-METHOXYTYRAMINE]: 11 min; `CC1C(=O)Nc2ccccc21` (stereo not drawn) [3-METHYL-2-OXINDOLE]: 1.73 min. As to `CCC(C)C(=O)C(=O)O` (stereo not drawn) [3-METHYL-2-OXOVALERATE], the LC retention time came to 1.73 min. In the case of `CC(C)=CC(=O)SCCNC(=O)CCNC(=O)C(O)C(C)(C)COP(=O)(O)OP(=O)(O)OCC1OC(n2cnc3c(N)ncnc32)C(O)C1OP(=O)(O)O` (stereo not drawn) [3-METHYLCROTONYL-COA], the LC retention time turned out to be 13.4 min.

Consider `Cn1cncc1CCN` [3-METHYLHISTAMINE], for which the LC retention time turned out to be 17.2 min. With `CC(CCC(=O)O)CC(=O)O` (stereo not drawn) [3-Methyladipic acid], the LC retention time is 2.13 min.

As to `Cc1cccnc1` [3-Methylpyridine (3-Picoline)], the LC retention time is 2.16 min. Next, `N[C@@H](Cc1ccc(O)c([N+](=O)[O-])c1)C(=O)O` [3-NITRO-L-TYROSINE]: 11.1 min; `O=C(O)C(O)COP(=O)(O)O` (stereo not drawn) [3-PHOSPHOGLYCERATE]: 18.1 min; `NC(CS(=O)O)C(=O)O` (stereo not drawn) [3-SULFINOALANINE]: 14.4 min. On to `CC(C)C(C(=O)O)C(O)C(=O)O` (stereo not drawn) [3-isopropylmalic acid], for which the LC retention time was found to be 2.19 min. Consider `CC(=O)NCCCC(=O)O` [4-ACETAMIDOBUTANOATE], for which the LC retention time was found to be 2.87 min. Consider `Nc1ccc(C(=O)O)cc1` [4-AMINOBENZOATE], for which the LC retention time amounted to 2.12 min. With `N[C@H](C(=O)O)c1ccc(O)cc1` [4-HYDROXY-L-PHENYLGLYCINE], the LC retention time came out at 13.3 min.

For `O=Cc1ccc(O)cc1` [4-HYDROXYBENZALDEHYDE], the LC retention time worked out at 1.77 min.
